{"source": "patent US20180310552A1", "about": "“Composition comprising a safener, a fungicide and metalaxyl” (priority 2015, published 2018)", "key": {"[1]": {"test_system": "Fusarium culmorum", "assay": "Fusarium culmorum (wheat)/seed treatment, greenhouse, 7 days at 20° C.", "type": "in vivo", "conditions": "seed treatment", "description": "(§1) According to another aspect of the present invention, in the composition according to the invention, the compound ratio A/B, A/C or A/B/C may be advantageously chosen so as to produce a synergistic effect. A synergistic effect of fungicides is always present when the fungicidal activity of the active compound combinations exceeds the total of the activities of the active compounds when applied individually. The expected activity for a given combination of two or three active compounds can be calculated as follows (cf. Colby, S. R., “Calculating Synergistic and Antagonistic Responses of Herbicide Combinations”, Weeds 1967, 15, 20-22).\n(§2) wherein • X denotes the efficacy when using active compound A at an application rate of m ppm (or g/ha), • Y denotes the efficacy when using active compound B (or C) at an application rate of n ppm (or g/ha), • Z denotes the efficacy when using active compound C at an application rate of r ppm (or g/ha), • E1 denotes the efficacy when using active compounds A and B at application rates of m and n ppm (or g/ha), and • E2 denotes the efficacy when using active compounds A and B and C at application rates of m and n and r ppm (or g/ha),\n(§3) Here, the efficacy is determined in %. 0% means an efficacy which corresponds to that of the control, whereas an efficacy of 100% means that no infection is observed.\n(§4) If the actual fungicidal action exceeds the calculated value, the action of the combination is superadditive, i.e. a synergistic effect is present. In this case, the actually observed efficacy must exceed the value calculated using the above formula for the expected efficacy (E1 or E2).\n(§5) The test is performed under greenhouse conditions.\n(§6) Active compounds solved in N-methyl-2-pyrrolidon, or combinations thereof were diluted with water to the desired dosages. Wheat seeds were treated with these preparations and sown in 7×7 cm pots filled with 1:1 mix of steamed field soil and sand, mixed with a wheat grain culture of Fusarium culmorum.\nPots were incubated in the greenhouse for 7 days at 20° C. […]"}, "[2]": {"test_system": "Fusarium culmorum", "assay": "Fusarium culmorum (wheat)/seed treatment, greenhouse, 7 days at 15° C. (Example 5)", "type": "in vivo", "conditions": "seed treatment", "description": "as §1, §2, §3, §4, §5\nas §6, with “Commercially available disease control agents, active” for “Active”, “6*6” for “7×7”, “containing 4 cm of a” for “filled with”\nPots were incubated in the greenhouse for 7 days at 15° C.\nAssessment consisted of counting of emerged seedlings and diseased plants. 0% means an efficacy which corresponds to that of the untreated control (infection rate was 73%), while an efficacy of 100% means that all seedlings have emerged and are healthy."}}, "data": [{"smiles": "COCC(=O)N(c1c(C)cccc1C)C(C)C(=O)OC", "note": "(racemic) [Metalaxyl, methylN-(2,6-dimethylphenyl)-N-(methoxyacetyl)-DL-alaninate]", "values": [{"measurement": "Efficacy in %", "setting": "[1]; 6 g a.i./dt", "result": 0, "unit": "%"}, {"measurement": "Efficacy in %", "setting": "[2]; 2 g a.i./kg seed", "result": 18, "unit": "%"}]}, {"smiles": "CCOC(=O)C1=NN(c2ccc(Cl)cc2Cl)C(C)(C(=O)OCC)C1", "note": "(racemic) [Mefenpyr-diethyl, diethyl (RS)-1-(2,4-dichlorophenyl)-5-methyl-2-pyrazoline-3,5-dicarboxylate]", "values": [{"measurement": "Efficacy in %", "setting": "[1]; 60 g a.i./dt", "result": 9, "unit": "%"}, {"measurement": "Efficacy in %", "setting": "[2]; 25 g a.i./kg seed", "result": 9, "unit": "%"}, {"measurement": "Efficacy in %", "setting": "[2]; 50 g a.i./kg seed", "result": 0, "unit": "%"}]}, {"smiles": "OC(Cc1ccccc1Cl)(Cn1[nH]cnc1=S)C1(Cl)CC1", "note": "(stereo not shown) [Prothioconazole, 2-[2-(1-chlorocyclopropyl)-3-(2-chlorophenyl)-2-hydroxypropyl]-1,2-dihydro-3H-1,2,4-triazole-3-thione]", "values": [{"measurement": "Efficacy in %", "setting": "[1]; 16 g a.i./dt", "result": 45, "unit": "%"}, {"measurement": "Efficacy in %", "setting": "[2]; 15 g a.i./kg seed", "result": 64, "unit": "%"}]}]}
